Entries after “also recorded” stand apart in the source; their conditions may differ. Where no end group is shown, it is not given here.
Key:
Kv1.3 = Kv1.3 (Homo sapiens, UniProt P22001); assay: Whole cell patch clamp electrophysiology on HEK293 cells stably expressing human Kv1.3; type: cell-based; conditions: for selectivity ratio hKv1.1/hKv1.3: ratio of hKv1.1 IC50 to hKv1.3 IC50; for Blockade of human Kv1.3 current (in words): patch clamp electrophysiology
human Kv1.1 = molecular target: T1, human Kv1.1 (Homo sapiens, UniProt Q09470); assay: Whole cell patch clamp electrophysiology, HEK293 cell expression system, human Kv1.1; type: cell-based
T1 construct: expressed in transfected cells; host or cells: HEK293

[1] = system: thapsigargin-induced IL-2 and IFN-g production in human whole blood; assay: Ex vivo human whole blood assay, thapsigargin-induced secretion of IL-2 and IFN-g; type: cell-based; conditions: for Thapsigargin-induced IFN-g production in human whole blood / Thapsigargin-induced IL-2 production in human whole blood: two donors, 48 hours
[2] = system: upregulation of CD40L and IL-2R on CD4+ T cells in human whole blood; assay: Ex vivo human whole blood assay, thapsigargin-induced cell surface CD40L and IL-2R on T cells (FACS); type: cell-based; conditions: 24 hours
[3] = Intravenous pharmacokinetic study in rats, serum levels by Kv1.3 inhibition bioassay; type: in vivo, Spraque Dawley rats
Protocol: This dose represented equal molar amounts of these two molecules. The average weight of the rats was about 0.3 kg and two rats were used for each dose & molecule. At various times following IV injection, blood was drawn and about 0.1 ml of serum was collected. Serum samples were stored frozen at −80° C. until analysis.
Assay Plate preparation for electrophysiology. […] Before experiments, each sample was thawed at room temperature and an aliquot (70 to 80 μl) was transferred to a well in a 96-well polypropylene plate. In order to prepare the Assay Plate, several dilutions were made from the pharmacokinetic serum samples to give rise to Test Solutions. Dilutions of serum samples from the pharmacokinetic study were into 10% Phosphate Buffered Saline (PBS, with Ca^2+ and Mg^2+). […] Standard inhibition curves were also prepared in the Assay Plate.
Cell preparation for electrophysiology. CHO cells stably expressing the voltage-activated K^+ channel, Kv1.3 were plated in T-175 tissue culture flasks (at a density of 5×10^6) 2 days before experimentation and allowed to grow to around 95% confluence. Immediately prior to the experiment, the cells were washed with PBS and then detached with a 2 ml mixture (1:1 volume ratio) of trypsin (0.25%) and versene (1:5000) at 37° C. (for 3 minutes). […] The mean K^+ current amplitude was measured between 430 and 440 ms and the data were exported to a Microsoft Excel spreadsheet. The amplitude of the K^+ current in the presence of each concentration of the Test Solution or Standard was expressed as a percentage of the K^+ current in control conditions in the same well.
Standard inhibition curves were generated for each standard in various levels of rat serum and expressed as current percent of control (POC) versus log of nM concentration. […]
Beyond 48 hours, the level of drug falls outside the linear range of the Standard curve and is not calculated. […]

[4] = system: AT-EAE model of multiple sclerosis; assay: Adoptive transfer experimental autoimmune encephalomyelitis (AT-EAE) model of multiple sclerosis; type: in vivo, Lewis rats; conditions: for Survival to the end of the study: n=5 rats per group; for peak clinical severity score average: scale 0-6

Chain of Kv1.3 (P22001 whole entry): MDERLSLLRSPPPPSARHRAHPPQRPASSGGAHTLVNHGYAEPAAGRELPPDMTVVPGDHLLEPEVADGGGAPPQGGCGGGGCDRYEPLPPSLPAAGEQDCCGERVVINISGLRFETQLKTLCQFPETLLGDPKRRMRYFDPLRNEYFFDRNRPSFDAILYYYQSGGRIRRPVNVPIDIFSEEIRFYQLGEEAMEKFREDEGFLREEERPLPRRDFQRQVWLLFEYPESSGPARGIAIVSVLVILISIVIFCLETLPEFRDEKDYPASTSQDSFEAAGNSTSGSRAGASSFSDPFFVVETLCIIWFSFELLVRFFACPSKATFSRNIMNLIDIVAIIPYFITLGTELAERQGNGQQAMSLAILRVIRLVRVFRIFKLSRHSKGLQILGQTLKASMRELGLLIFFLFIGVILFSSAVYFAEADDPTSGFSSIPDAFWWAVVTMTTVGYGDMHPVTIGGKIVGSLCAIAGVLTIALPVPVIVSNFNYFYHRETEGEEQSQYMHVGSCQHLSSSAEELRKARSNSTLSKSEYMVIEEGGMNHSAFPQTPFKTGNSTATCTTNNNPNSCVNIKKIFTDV
T1 sequence (Q09470 whole entry): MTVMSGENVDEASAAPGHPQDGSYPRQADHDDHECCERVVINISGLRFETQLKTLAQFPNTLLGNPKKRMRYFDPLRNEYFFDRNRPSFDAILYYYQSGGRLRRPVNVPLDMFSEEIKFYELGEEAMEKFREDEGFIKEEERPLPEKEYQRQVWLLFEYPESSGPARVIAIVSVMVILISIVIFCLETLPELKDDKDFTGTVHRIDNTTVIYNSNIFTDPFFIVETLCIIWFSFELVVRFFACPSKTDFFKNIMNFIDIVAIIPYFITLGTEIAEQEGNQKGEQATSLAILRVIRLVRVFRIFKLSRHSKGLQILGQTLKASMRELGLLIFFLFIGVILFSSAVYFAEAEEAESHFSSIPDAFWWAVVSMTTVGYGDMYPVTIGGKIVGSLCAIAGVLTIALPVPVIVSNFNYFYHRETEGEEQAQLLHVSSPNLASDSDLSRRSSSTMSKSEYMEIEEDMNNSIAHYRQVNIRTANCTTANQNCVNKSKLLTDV

## Fc-L10-OSK1[E16K,K20D]: OSK1-peptibody with E16K and K20D substitutions; SEQ ID NO: 1045
Kv1.3
  selectivity ratio hKv1.1/hKv1.3: 403

## Fc-L10-OSK1[K7S,E16K,K20D]: OSK1-peptibody with K7S, E16K and K20D substitutions; SEQ ID NO: 1047
Kv1.3
  selectivity ratio hKv1.1/hKv1.3: 12
Human Kv1.1
  Potency and selectivity Kv1.3 versus Kv1.1 (in words): significant decrease in potency as well as selectivity

## Fc-L10-OSK1[K7S]: OSK1-peptibody with lysine to serine substitution at position 7; SEQ ID NO: 1043
Kv1.3
  selectivity ratio hKv1.1/hKv1.3: 269
Human Kv1.1; whole cell patch clamp, HEK293 cell expression system, human Kv1.1, read-out: hKv1.1:IC50
  IC50: 100 nM

## Fc-L10-ShK[2-35]: human IgG1 Fc fused via 10 amino acid linker to ShK[2-35]; SEQ ID NO: 81
Kv1.3
  Blockade of human Kv1.3 current (in words): potently blocks human Kv1.3 current
[1]; human whole blood
  Potency in blocking IL-2 production relative to cyclosporine A (by IC50): more than 200 times
[1]
  Thapsigargin-induced IFN-g production in human whole blood: suppressed; also recorded: blocked
  Thapsigargin-induced IL-2 production in human whole blood: suppressed; also recorded: potently blocked IL-2 secretion
[2]
  Thapsigargin-induced upregulation of CD40L on T cells in human whole blood: blocked
  Thapsigargin-induced upregulation of the IL-2R on T cells in human whole blood: blocked; also recorded: suppressing activation of the IL-2R

## Fc-L-KTX1: peptibody: Fc fused via linker to Kaliotoxin1 (KTX1, SEQ ID NO: 24)
Kv1.3
  Blockade of human Kv1.3 current (in words): blocked the human Kv1.3 current in a dose-dependent fashion

## PEG-ShK[1-35]: synthetic ShK N-terminally PEGylated with 20 kDa monomethoxy-PEG-aldehyde by reductive alkylation; about 24-kDa
Kv1.3; blockade of peak outward potassium current, HEK293 cells stably expressing human Kv1.3, read-out: peak IC50
  IC50: 0.169 nM
[3]; IV injection 1 mg/kg, estimated from curve
  terminal half-life (t1/2 b): 6 to 12 h
[3]; single equal molar IV injection, 5% serum Test solutions
  Time of significant suppression of Kv1.3 current (<70 POC) by serum: more than 24 hours
[4]; 1 ug/kg
  Average body weight lost: 30 g
[4]; 1 μg/kg SC daily days −1 to 3
  Onset of disease: 4 days
[4]; 10 μg/kg
  Average body weight lost: 18 g
  Survival to the end of the study: all but one rat survived to the end of the study
  peak clinical severity score average: < 2
[4]; 10 μg/kg SC daily days −1 to 3
  Onset of disease: 4.5 days
[4]; 100 μg/kg
  Average body weight lost: 11 g
  Survival to the end of the study: all but one rat survived to the end of the study
  peak clinical severity score average: < 2
[4]; 100 μg/kg SC daily days −1 to 3
  Onset of disease: 4.5 days
[4]; SC 10 μg/kg daily from day −1 to day 3
  Disease severity and survival (in words): significantly reduced disease severity and increased survival

## PEG-ShK[2-35]: folded Des-Arg1-ShK N-terminally mono-PEGylated with 20 kDa MeO-PEG-aldehyde by reductive amination ({mPEG 20 kDa}-SCIDTIPKSRCTAFQCKHSMKYRLSFCRKTCGTC; disulfide (positions not given here); ends not checked; also: folded (disulfides not given here))
Kv1.3
  Blockade of human Kv1.3 current (in words): active in blocking human Kv1.3

## dendrotoxin-K
[2]
  Thapsigargin-induced upregulation of CD40L on T cells in human whole blood: no significant activity
  Thapsigargin-induced upregulation of the IL-2R on T cells in human whole blood: no significant activity

## iberiotoxin (QFTDVDCSVSKECWSVCKDLFGVDRGKCMGKKCRCYQ; BKCa peptide inhibitor sequence - IbTx) [reference compound]
[1]
  Thapsigargin-induced IFN-g production in human whole blood: no significant activity
  Thapsigargin-induced IL-2 production in human whole blood: no significant activity
[2]
  Thapsigargin-induced upregulation of CD40L on T cells in human whole blood: no significant activity
  Thapsigargin-induced upregulation of the IL-2R on T cells in human whole blood: no significant activity
